From US5230998A, “Method for the prescreening of drugs targeted to the V3 hypervariable loop of the HIV-1 envelope glycoprotein gp 120” (priority 1991, dated 1993)

Experiments:
[1] = molecular target: T1, HIV-1 IIIB glycoprotein gp120 V3 hypervariable loop (Human immunodeficiency virus type 1 BH10, UniProt P03375); assay: Inhibition of the reaction between HIV-1 IIIB gp120 and three distinct antibodies reacting with the V3 hypervariable loop (FIGS. 8-11); assay type: binding; settings: 60 μg/ml, metal complexes versus uncomplexed
T1 construct: b180 also mentions the V3 loop peptide
Protocol: (§1) FIG. 8 is a bar graph depicting the inhibitory effect of chlorine6 (60 μg/ml) and metal chelates thereof on the reaction between HIV-1 IIIB glycoprotein gp120 and three distinct antibodies reacting with the V3 hypervariable loop of this glycoprotein. The antisera used were rabbit antiserum to a synthetic peptide corresponding to the V3 hypervariable loop of HIV-1 clone BH10, serum of a chimpanzee immunized with V3 hypervariable loop peptides of distinct HIV-1 isolates and monoclonal antibodies (McAb NEA 9305) raised against residues (315-329) of the V3 hypervariable loop of HIV-1 BH10 (Neurath et al (1990), Molec. Immunol., 27, 539-549).
FIG. 9 is a bar graph depicting the inhibitory effect of deuteroporphyrin IX,2-vinyl,4-hydroxymethyl (60 μg/ml) and metal chelates thereof on the reaction between HIV-1 IIIB glycoprotein gp120 and three distinct antibodies reacting with the V3 hypervarible loop of this glycoprotein. The antisera used were rabbit antiserum to a synthetic peptide corresponding to the V3 hypervariable loop of HIV-1 clone BH10, serum of a chimpanzee immunized with V3 hypervariable loop peptides of distinct HIV-1 isolates and monoclonal antibodies (McAb NEA 9305) raised against a synthetic peptide corresponding to residues (315-329) of the V3 hypervariable loop of HIV-1 BH10 (Neurath et al (1990), Molec. Immunol 27, 539-549).
as §1, with “FIG. 10” for “FIG. 8”, “of meso-tetra (4-carboxyphenyl)porphine” for “of chlorine6”, “against a synthetic peptide corresponding to” for “against”, “HIV-1 BH10.” for “HIV-1 BH10”
as §1, with “FIG. 11” for “FIG. 8”, “of uroporphyrin III” for “of chlorine6”, “against a synthetic peptide corresponding to” for “against”, “et al,” for “et al”, “Molec. lmmunol.,” for “Molec. Immunol.,”, “27, 539-549)” for “27, 539-549).”
Monoclonal antibodies (McAbs) recognizing the V3 hypervariable loop of HIV-1 BH 10 (McAb 9305 from DuPont, Wilmington, Del.) and an antiserum from a chimpanzee immunized with a mixture of V3 hypervariable loop peptides from 21 distinct HIV1 isolates (Girard, M., Kieny, M-P., Pinter, A., Barre-Sinoussi, F., Nara, P., Kolbe, H., Kusumi, K., Chaput, A., Reinhart, T., Muchmore, E, Ronco, J., Kaczorek, M., Gomard, E, Gluckman, JC., Fultz, P. N. (1991), "Immunization of Chimpanzees Confers Protection Against Challenge with Human Immunodeficiency Virus", Proc. Natl. Acad. Sci. USA, 88, 542-546) were also used for studies on the inhibitory affect of ATA on the reaction between these antibodies and gp120, using ELISA tests. These tests were carried out similarly as RIA, except that sodium merthiolate (1 mg/ml) was added to the buffers instead of NaN3, and goat antimouse IgG antibodies (Boehringer Mannheim Biochemicals, Indianapolis, Ind.) and goat anti-human IgG antibodies (Sigma, St. Louis, Mo.), respectively, each linked to horseradish peroxidase were used as second antibodies at final dilutions of 1:1,000 in phosphate-buffered saline (PBS) containing 10% goat serum and 0.1% Tween 20. […]

[2] = test system: HIV-1 reverse transcriptase; settings: literature; cited from earlier work
[3] = test system: gp120 expressed on the surface of HIV-1-infected cells; settings: literature; cited from earlier work
[4] = molecular target: T2, HIV-1 gp120 V3 hypervariable loop (Human immunodeficiency virus type 1 group M subtype B, UniProt P03375); assay: biochemical; assay type: binding; settings: excess of serum proteins in medium
T2 construct: Polystyrene plates coated with recombinant gp120 and gp160, respectively; purchased American Bio-Technologies, Inc., Cambridge, Mass; host or cells: baculovirus expression system
Protocol: Wells of 96 well polystyrene plates (Immulon 2, Dynatech Laboratories, Inc., Chantilly, Va.) were coated with synthetic peptides (200 μl; 20μg/ml in 0.1 M Tris-HCl, pH 8.8) overnight at 20° C. The peptides were from the sequence of HIV-1, clone BH 10 envelope glycoproteins gp120 and gp41 (Neurath, A. R., Strick, N., and Lee, E. Y. S. (1990), "B-cell Epitope Mapping of Human Immunodeficiency virus (HIV-1) Envelope Glycoprotein with Long (19 to 36-residue) Synthetic Peptides", J. Gen. Virol., 71., 85-95) and from V3 hypervariable loops of 21 distinct HIV-1 isolates (clones) Neurath, A. R., and Strick, N., (1990), "Confronting the Hypervariability of an Immunodominant Epitope Eliciting Virus Neutralizing Antibodies from the Envelope Glycoprotein of the Human Immunodeficiency Virus Type 1 (HIV-1)", Molec. Immunol., 27, 539-549. The latter peptides corresponded to full-length V3 loops generated by disulfide bonds between N- and C- terminal cysteine residues. After washing with 0.14 M NaCl, 0.01 M Tris, 0.02% NaN3 (TS), the wells were postcoated with a mixture of bovine serum albumin (BSA) and gelatine (10 and 2.5 mg/ml, respectively) in TS. BSA was omitted from the postcoating solution for RIA tests in which antibodies to ATA were used. Polystyrene plates coated with recombinant gp120 and gp160, respectively, (500 ng/well; from American Bio-Technologies, Inc., Cambridge, Mass. and MicroGeneSys, Inc., West Haven, Conn., respectively) were also used for RIA and ELISA tests.
To define sites on gp120/gp41 reacting with ATA, the inhibitory effect of this compound was studied by RIA tests using gp120- and gp160-coated wells, respectively, and antisera (final dilutions 1:150) against synthetic peptides from the entire sequence of gp120/gp41 of HIV-1 BH 10. The preparation and biological properties of these antisera were described elsewhere (Neurath et al., (1990), J. Gen. Virol., 71, 85-95). Each of the antisera was diluted in a mixture of fetal bovine serum and goat serum (9:1) containing 0.1% Tween 20, adjusted to pH 8. ATA (final concentration 50 μg/ml) was added in one set of assays, but was omitted from a parallel set. After incubation overnight at 25° C., the plates were washed with TS. Attached rabbit IgG was detected using ^125 I-labeled anti-rabbit IgG, as described before (Neurath et al., 1990, J. Gen. Virol., 71, 85-95). Similarly, the inhibitory effect of ATA on the reaction of peptides derived from gp120/gp41 and of peptides derived from V3 hypervariable loops from gp120 of distinct HIV-1 isolates with the respective homologous anti-peptide antisera was studied. In the latter case, antisera were diluted 1:1,000 for the assays.
The inhibitory effect of ATA and of other compounds on the reaction between antibodies with predetermined specificity and gp120 (or synthetic peptides derived from it) was determined from the formula: [formula] An analogous formula was used to calculate the percentage of inhibition from optical density readings resulting from ELISA tests.
Chemicals other than ATA were screened for inhibitory activity essentially as described above. […] Chemicals with inhibitory activity established by the respective immunoassays were screened further for antiviral activity.
Commercially available ATA is a mixture of monomers and polymers of distinct molecular masses (Gonzalez et al., (1979) Biochem. Biophys. Acta, 562, 534-545); Cushman et al., (1991), J. Chem., 34, 329-337). The monomers [molecular mass (M.W.)=422.4 daltons] were separated from the polymers. ATA (20 mg/ml in the form of free acid neutralized with 0.4 M NaOH) was dialyzed against H2 O in a dialysis membrane with a molecular mass cutoff of 500 daltons.

CD4 receptor = settings: literature; cited from earlier work
HIV-1 = settings: literature; cited from earlier work

Row | Compound | inhibitory activity on the interaction between the V3 hypervariable loop of HIV-1-IIIB and antisera [1] | inhibition of the reaction of gp120 on infected cells with monoclonal anti-gp120 antibodies [3] | also measured
1 | O=C(O)c1ccc(-c2c3nc(c(-c4ccc(C(=O)O)cc4)c4ccc([n-]4)c(-c4ccc(C(=O)O)cc4)c4nc(c(-c5ccc(C(=O)O)cc5)c5ccc2[n-]5)C=C4)C=C3)cc1.[Co+2] | drastically reduced inhibitory activity |  | 
2 | O=C(O)c1ccc(-c2c3nc(c(-c4ccc(C(=O)O)cc4)c4ccc([n-]4)c(-c4ccc(C(=O)O)cc4)c4nc(c(-c5ccc(C(=O)O)cc5)c5ccc2[n-]5)C=C4)C=C3)cc1.[Cr+2] | drastically reduced inhibitory activity |  | 
3 | O=C(O)c1ccc(-c2c3nc(c(-c4ccc(C(=O)O)cc4)c4ccc([n-]4)c(-c4ccc(C(=O)O)cc4)c4nc(c(-c5ccc(C(=O)O)cc5)c5ccc2[n-]5)C=C4)C=C3)cc1.[Cu+2] | drastically reduced inhibitory activity |  | 
4 | C=Cc1c(C)c2cc3nc(cc4[n-]c(cc5nc(cc1[n-]2)C(C)=C5CO)c(C)c4CCC(=O)O)C(CCC(=O)O)=C3C.[Fe+2] | substantially lower than that of the uncomplexed substance or of its Zn derivative |  | 
5 | O=C(O)c1ccc(-c2c3nc(c(-c4ccc(C(=O)O)cc4)c4ccc([n-]4)c(-c4ccc(C(=O)O)cc4)c4nc(c(-c5ccc(C(=O)O)cc5)c5ccc2[n-]5)C=C4)C=C3)cc1.[Fe+2] | drastically reduced inhibitory activity |  | 
6 | O=C(O)c1ccc(-c2c3nc(c(-c4ccc(C(=O)O)cc4)c4ccc([n-]4)c(-c4ccc(C(=O)O)cc4)c4nc(c(-c5ccc(C(=O)O)cc5)c5ccc2[n-]5)C=C4)C=C3)cc1.[Mn+2] | drastically reduced inhibitory activity |  | 
7 | O=C(O)c1ccc(-c2c3nc(c(-c4ccc(C(=O)O)cc4)c4ccc([n-]4)c(-c4ccc(C(=O)O)cc4)c4nc(c(-c5ccc(C(=O)O)cc5)c5ccc2[n-]5)C=C4)C=C3)cc1.[Ni+2] | drastically reduced inhibitory activity |  | 
8 | Cc1cc(-c2ccc(/N=N/c3ccc4c(S(=O)(=O)O)cc(S(=O)(=O)O)c(N)c4c3O)c(C)c2)ccc1/N=N/c1ccc2c(S(=O)(=O)O)cc(S(=O)(=O)O)c(N)c2c1O [substance #28, Evans Blue] |  | inhibit the reaction of gp120 expressed on the surface of HIV-1-infected cells with monoclonal anti-gp120 antibodies | inhibition of HIV-1 reverse transcriptase [2]: inhibited the reverse transcriptase of HIV-1; reaction with the V3 hypervariable loop as determined by RIA (ELISA) tests [4]: did not react with the V3 hypervariable loop; inhibition of the interaction with CD4 receptor (CD4 receptor): inhibited the interaction of the CD4 receptor for HIV-1
9 | CC1=C/C(=C(\c2ccc(N)c(S(=O)(=O)[O-])c2)c2ccc(N)c(S(=O)(=O)O)c2)C=C(S(=O)(=O)[O-])C1=N.[Na+].[Na+] [substance #145, acid fuchsin] |  |  | inhibition of HIV-1 reverse transcriptase [2]: inhibited the reverse transcriptase of HIV-1; reaction with the V3 hypervariable loop as determined by RIA (ELISA) tests [4]: did not react with the V3 hypervariable loop
10 | Cc1ccc(C(=O)Nc2ccc(S(=O)(=O)O)c3cc(S(=O)(=O)O)cc(S(=O)(=O)O)c23)cc1NC(=O)c1cccc(NC(=O)Nc2cccc(C(=O)Nc3cc(C(=O)Nc4ccc(S(=O)(=O)O)c5cc(S(=O)(=O)O)cc(S(=O)(=O)O)c45)ccc3C)c2)c1 [suramin, reference compound] |  | inhibit the reaction of gp120 expressed on the surface of HIV-1-infected cells with monoclonal anti-gp120 antibodies | inhibition of HIV-1 reverse transcriptase [2]: inhibited the reverse transcriptase of HIV-1
11 | hemin [substance #13] |  |  | inhibition of HIV-1 replication / antiviral activity (HIV-1): anti-HIV-1 activity
12 | heparin |  | inhibit the reaction of gp120 expressed on the surface of HIV-1-infected cells with monoclonal anti-gp120 antibodies | 
13 | pentosan polysulfate |  | inhibit the reaction of gp120 expressed on the surface of HIV-1-infected cells with monoclonal anti-gp120 antibodies | 
